Source: patent US5928932A, “Isolated gene encoding an enzyme with UDP-glucose pyrophosphorylase and phosphoglucomutase activities from Cyclotella cryptica” (priority 1996, dated 1999)

Biological target: T1, purified UGPase/PGMase protein (Cyclotella cryptica, UniProt A0ABD3PLY7)
T1 construct: both domains act
Assay type: biochemical
Details: determined via double reciprocal plots; glucose-6-phosphate versus glucose-1-phosphate as substrate
Description: P-4252) were added to each reaction and incubated for one hour at 30° C. The reaction mixtures were spotted onto separate 2.5 cm DE81 filter disks (Whatman Inc.; Fairfield, N.J.), which were then washed in five consecutive batches of water (200 mL each). The radioactivity of each filter was determined by liquid scintillation counting.

T1 sequence (A0ABD3PLY7 entry or part of it R291K): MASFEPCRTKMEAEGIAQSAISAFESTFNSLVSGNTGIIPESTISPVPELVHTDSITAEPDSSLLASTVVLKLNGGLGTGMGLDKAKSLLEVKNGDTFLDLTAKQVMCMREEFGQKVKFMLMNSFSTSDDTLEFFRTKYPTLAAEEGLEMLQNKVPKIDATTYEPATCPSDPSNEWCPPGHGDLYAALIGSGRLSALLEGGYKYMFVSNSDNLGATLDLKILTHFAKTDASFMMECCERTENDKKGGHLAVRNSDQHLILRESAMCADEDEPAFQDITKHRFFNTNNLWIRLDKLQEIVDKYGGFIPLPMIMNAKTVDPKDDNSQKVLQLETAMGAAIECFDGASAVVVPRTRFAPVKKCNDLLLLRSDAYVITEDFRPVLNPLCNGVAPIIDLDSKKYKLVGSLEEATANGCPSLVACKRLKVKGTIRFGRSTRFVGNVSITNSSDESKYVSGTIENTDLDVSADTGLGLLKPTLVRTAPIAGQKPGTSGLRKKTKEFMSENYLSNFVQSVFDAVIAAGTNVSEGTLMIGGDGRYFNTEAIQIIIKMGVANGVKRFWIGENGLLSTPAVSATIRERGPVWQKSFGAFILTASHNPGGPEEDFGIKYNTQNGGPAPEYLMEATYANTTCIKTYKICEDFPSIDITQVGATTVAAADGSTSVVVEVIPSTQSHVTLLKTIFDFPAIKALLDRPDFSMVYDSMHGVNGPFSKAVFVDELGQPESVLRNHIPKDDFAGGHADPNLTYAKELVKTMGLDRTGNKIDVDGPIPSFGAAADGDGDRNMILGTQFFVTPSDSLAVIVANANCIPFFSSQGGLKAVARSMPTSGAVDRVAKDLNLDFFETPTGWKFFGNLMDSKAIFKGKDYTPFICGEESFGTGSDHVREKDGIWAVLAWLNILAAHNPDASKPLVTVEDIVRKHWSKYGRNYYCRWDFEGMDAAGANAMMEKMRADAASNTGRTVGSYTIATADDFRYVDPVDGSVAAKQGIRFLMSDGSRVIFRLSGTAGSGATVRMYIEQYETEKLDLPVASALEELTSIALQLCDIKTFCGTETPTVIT

In the case of O=P(O)(O)OC[C@H]1OC(O)[C@H](O)[C@@H](O)[C@@H]1O (stereo partly shown) [glucose-6-phosphate], the “maximum velocity of UDP-glucose formation, fold less than for glucose-1-phosphate” value is reported as 13 fold.
